Assay results taken from patent publication US20250114345A1, “COMPOUNDS AND COMPOSITIONS AS CBP/P300 DEGRADERS AND USES THEREOF” (Oncopia Therapeutics, Inc. d/b/a/ SK Life Science Labs, priority 2023, published 2025).

Columns and labels:
[1] = target: T1, p300 (Homo sapiens, UniProt Q09472); experiment: P300 degradation, HiBit technology in A549 P300 HiBit cells (2 h); type: cell-based; conditions: 2 hrs post treatment; for Dmax: A549, A549 P300 HiBit cells; for DC50: A549 P300 HiBit cells
T1 construct: host or cells: A549 P300 HiBit cells
Procedure, shortened: (§1)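 Endogenously HiBiT-tagged A549 cells are plated, left overnight, then treated with a compound dilution series at 37 °C and 5% CO2. At the set time, lytic detection buffer is added and plates are shaken 10 min at room temperature before luminescence is measured to derive potency and Dmax.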

[2] = target: T2, CBP (Homo sapiens, UniProt Q92793); experiment: CBP degradation, HiBit technology in A549 CBP HiBit cells (24 h); type: cell-based; conditions: 24 hrs post treatment
T2 construct: host or cells: A549 CBP HiBit cells
Procedure, shortened: as §1

T2 sequence (Q92793 whole entry): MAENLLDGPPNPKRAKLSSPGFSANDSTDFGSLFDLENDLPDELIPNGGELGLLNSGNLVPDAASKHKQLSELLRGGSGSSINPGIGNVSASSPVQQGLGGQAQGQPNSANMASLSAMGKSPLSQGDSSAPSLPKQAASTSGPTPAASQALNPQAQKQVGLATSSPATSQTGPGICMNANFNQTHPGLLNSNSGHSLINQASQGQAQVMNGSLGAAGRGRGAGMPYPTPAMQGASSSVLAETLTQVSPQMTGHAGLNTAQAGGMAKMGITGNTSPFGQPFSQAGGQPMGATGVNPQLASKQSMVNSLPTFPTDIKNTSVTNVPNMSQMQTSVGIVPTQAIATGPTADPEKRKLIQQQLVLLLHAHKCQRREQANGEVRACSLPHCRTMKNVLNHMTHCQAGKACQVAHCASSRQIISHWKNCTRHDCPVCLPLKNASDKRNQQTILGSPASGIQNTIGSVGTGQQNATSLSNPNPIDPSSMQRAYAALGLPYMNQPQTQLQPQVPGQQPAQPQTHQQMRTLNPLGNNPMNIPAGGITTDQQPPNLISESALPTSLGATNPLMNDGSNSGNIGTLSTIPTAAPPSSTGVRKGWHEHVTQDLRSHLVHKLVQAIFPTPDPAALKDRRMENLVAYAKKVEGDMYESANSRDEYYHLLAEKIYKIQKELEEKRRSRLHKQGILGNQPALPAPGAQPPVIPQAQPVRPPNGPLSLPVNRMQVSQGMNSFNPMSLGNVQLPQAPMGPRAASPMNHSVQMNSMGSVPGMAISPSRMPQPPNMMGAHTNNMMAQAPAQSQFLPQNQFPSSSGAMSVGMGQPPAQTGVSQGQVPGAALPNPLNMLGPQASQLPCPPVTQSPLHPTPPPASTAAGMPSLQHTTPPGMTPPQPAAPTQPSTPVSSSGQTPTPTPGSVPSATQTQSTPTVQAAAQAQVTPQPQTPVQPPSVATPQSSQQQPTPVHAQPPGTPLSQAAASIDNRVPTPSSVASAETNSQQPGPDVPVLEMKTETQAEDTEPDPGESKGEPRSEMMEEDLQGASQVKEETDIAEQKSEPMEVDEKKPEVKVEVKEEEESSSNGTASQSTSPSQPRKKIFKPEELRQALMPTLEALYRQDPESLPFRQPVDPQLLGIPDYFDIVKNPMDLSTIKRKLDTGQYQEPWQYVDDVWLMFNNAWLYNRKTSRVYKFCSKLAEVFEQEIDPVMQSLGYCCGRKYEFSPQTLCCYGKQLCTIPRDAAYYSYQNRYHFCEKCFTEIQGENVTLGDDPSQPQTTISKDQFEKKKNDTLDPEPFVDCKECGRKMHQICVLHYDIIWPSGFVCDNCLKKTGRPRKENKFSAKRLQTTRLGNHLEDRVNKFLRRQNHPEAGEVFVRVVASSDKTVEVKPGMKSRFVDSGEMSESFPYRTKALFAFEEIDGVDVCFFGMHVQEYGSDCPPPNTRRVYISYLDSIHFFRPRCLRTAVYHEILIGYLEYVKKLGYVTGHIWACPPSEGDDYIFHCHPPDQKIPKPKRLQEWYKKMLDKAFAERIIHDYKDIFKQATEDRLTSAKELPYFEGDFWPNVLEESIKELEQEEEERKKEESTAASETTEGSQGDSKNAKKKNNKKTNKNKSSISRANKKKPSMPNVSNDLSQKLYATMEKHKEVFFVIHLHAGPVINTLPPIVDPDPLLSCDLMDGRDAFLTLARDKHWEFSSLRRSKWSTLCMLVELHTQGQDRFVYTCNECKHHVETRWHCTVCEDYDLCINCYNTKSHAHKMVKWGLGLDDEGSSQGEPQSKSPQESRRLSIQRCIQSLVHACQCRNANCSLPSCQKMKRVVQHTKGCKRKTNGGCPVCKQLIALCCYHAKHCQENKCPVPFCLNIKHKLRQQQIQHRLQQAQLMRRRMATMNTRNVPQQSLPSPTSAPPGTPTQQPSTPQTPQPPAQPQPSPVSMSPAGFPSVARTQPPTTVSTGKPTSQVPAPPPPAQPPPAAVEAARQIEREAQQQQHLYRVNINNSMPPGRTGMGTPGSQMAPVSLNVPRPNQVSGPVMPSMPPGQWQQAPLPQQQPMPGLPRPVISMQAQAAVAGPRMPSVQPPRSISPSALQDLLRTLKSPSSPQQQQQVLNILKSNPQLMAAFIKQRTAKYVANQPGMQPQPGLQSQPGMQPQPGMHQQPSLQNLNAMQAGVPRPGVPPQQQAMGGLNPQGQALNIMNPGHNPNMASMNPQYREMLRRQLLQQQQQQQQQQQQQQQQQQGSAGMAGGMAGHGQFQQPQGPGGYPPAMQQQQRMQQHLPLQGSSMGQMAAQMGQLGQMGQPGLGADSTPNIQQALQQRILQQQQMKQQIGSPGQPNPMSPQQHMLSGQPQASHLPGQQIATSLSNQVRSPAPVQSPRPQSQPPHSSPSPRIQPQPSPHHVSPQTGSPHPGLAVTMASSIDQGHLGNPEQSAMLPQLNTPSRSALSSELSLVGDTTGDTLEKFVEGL
T1 sequence (Q09472 whole entry): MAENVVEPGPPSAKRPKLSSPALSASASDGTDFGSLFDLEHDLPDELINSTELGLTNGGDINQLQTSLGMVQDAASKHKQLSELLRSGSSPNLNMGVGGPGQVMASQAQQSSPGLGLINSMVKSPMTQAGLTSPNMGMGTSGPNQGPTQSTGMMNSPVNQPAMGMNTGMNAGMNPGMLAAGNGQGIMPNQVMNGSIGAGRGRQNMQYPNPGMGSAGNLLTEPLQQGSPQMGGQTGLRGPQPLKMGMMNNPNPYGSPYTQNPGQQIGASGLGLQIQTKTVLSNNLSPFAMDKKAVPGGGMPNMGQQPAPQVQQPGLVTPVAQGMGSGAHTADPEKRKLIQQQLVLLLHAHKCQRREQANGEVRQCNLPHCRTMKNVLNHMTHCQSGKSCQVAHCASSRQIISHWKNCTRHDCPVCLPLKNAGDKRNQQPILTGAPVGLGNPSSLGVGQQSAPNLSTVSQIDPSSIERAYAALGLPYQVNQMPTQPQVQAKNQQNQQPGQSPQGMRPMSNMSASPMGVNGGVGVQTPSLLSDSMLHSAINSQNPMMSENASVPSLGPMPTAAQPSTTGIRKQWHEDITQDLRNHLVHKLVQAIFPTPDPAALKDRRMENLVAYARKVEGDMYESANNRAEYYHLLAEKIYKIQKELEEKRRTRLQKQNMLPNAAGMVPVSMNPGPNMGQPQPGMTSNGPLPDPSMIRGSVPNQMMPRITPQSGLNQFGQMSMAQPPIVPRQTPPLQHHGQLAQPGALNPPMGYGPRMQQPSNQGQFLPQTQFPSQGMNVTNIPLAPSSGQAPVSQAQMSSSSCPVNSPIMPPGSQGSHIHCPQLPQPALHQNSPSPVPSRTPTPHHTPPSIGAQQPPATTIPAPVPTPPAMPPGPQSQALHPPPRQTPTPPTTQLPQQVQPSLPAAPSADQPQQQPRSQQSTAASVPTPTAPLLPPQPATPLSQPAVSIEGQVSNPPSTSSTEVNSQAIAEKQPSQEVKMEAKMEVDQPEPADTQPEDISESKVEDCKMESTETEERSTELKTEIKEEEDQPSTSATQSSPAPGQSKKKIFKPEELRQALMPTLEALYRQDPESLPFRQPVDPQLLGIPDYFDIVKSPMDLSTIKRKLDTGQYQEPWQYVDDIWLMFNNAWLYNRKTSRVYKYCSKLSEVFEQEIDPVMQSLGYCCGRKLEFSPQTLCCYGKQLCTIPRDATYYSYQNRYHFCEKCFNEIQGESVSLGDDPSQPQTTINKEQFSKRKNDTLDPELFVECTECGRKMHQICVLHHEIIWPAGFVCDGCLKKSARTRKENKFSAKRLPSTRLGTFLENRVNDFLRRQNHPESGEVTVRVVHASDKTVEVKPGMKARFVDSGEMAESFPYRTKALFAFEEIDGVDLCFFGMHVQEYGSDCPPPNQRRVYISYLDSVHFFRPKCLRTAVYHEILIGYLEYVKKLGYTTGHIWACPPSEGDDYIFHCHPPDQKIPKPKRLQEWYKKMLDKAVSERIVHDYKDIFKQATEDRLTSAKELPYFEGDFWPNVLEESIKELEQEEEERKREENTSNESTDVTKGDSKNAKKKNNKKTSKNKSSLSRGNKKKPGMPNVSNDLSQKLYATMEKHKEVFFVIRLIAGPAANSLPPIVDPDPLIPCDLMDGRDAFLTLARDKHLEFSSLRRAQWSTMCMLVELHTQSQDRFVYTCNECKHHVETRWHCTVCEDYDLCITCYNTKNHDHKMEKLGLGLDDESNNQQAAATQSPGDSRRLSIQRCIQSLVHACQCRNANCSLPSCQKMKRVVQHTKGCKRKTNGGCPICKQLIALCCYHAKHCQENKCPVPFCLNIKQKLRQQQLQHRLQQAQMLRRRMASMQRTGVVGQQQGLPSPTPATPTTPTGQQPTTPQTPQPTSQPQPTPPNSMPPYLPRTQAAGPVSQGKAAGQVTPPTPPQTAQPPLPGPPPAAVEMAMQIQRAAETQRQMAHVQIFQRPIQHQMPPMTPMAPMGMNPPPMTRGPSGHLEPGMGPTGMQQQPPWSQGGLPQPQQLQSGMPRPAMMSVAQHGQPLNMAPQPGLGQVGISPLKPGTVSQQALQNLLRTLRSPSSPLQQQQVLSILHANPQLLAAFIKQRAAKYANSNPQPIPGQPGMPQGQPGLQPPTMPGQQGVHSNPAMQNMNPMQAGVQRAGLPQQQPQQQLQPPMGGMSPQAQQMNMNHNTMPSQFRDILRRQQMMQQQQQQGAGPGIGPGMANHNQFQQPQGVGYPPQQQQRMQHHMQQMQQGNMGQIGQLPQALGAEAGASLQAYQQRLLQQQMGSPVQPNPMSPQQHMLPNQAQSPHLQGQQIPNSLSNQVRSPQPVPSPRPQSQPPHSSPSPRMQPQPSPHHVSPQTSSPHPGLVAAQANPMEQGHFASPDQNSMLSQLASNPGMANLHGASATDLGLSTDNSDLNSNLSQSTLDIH

Compound | Dmax [1] [%] | DC50 [1] [nM] | DC50 [2] [nM] | Dmax [2] [%]
CCc1cc(-c2cccc3cc(-c4ccc(C(=O)NCC#Cc5ccc6c(c5)n(C5CCC(=O)NC5=O)c(=O)n6C)nc4)ncc23)c2cc(C)c(=O)n(C)c2c1 (stereo not shown) [Example B8, N-(3-(3-(2,6-Dioxopiperidin-3-yl)-1-methyl-2-oxo-2,3-dihydro-1H-benzo[d]imidazol-5-yl)prop-2-yn-1-yl)-5-(8-(7-ethyl-1,3-dimethyl-2-oxo-1,2-dihydroquinolin-5-yl)isoquinolin-3-yl)picolinamide] | > 80 | 1 to 9.9 | 10 to 99 | 40 to 59
CN1Cc2c(-c3cccc4cc(-c5ccc(C(=O)NCC#Cc6ccc7cnn(C8CCC(=O)NC8=O)c7c6)nc5)ncc34)cc(C(C)(F)F)cc2N(C)C1=O (stereo not shown) [Example B9, 5-(8-(7-(1,1-Difluoroethyl)-1,3-dimethyl-2-oxo-1,2,3,4-tetrahydroquinazolin-5-yl)isoquinolin-3-yl)-N-(3-(1-(2,6-dioxopiperidin-3-yl)-1H-indazol-6-yl)prop-2-yn-1-yl)picolinamide] | > 80 | 1 to 9.9 | 10 to 99 | 40 to 59
CCc1cc(N(C)c2ccc(-c3cnc(C(=O)NCC#Cc4cccc(NC5CCC(=O)NC5=O)c4)c(C)c3)nc2)c2cc(C)c(=O)n(C)c2c1 (stereo not shown) [Example B16, N-(3-(3-((2,6-Dioxopiperidin-3-yl)amino)phenyl)prop-2-yn-1-yl)-5-((7-ethyl-1,3-dimethyl-2-oxo-1,2-dihydroquinolin-5-yl)(methyl)amino)-5′-methyl-[2,3′-bipyridine]-6′-carboxamide] | > 80 | 1 to 9.9 | 100 to 999 | 20 to 39
COc1nc(-c2cnc(C(=O)NCC#Cc3cc4c(C5CCC(=O)NC5=O)cccc4o3)c(C)c2)ncc1Nc1cc(C2CCOCC2)cc2c1cc(C)c(=O)n2C (stereo not shown) [Example B20, 5-(5-((1,3-dimethyl-2-oxo-7-(tetrahydro-2H-pyran-4-yl)-1,2-dihydroquinolin-5-yl)amino)-4-methoxypyrimidin-2-yl)-N-(3-(4-(2,6-dioxopiperidin-3-yl)benzofuran-2-yl)prop-2-yn-1-yl)-3-methylpicolinamide] | > 80 | 1 to 9.9 | > 1000 | < 20
[2H]C1COCCC1([2H])c1cc(N2CCCc3nc(-c4ccc(C(=O)NCC#Cc5cc6c(C7CCC(=O)NC7=O)cccc6o5)nc4)ncc32)c2cc(C)c(=O)n(C)c2c1 (stereo not shown) [Example B23, 5-(5-(1,3-dimethyl-2-oxo-7-(tetrahydro-2H-pyran-4-yl-3,4-d2)-1,2-dihydroquinolin-5-yl)-5,6,7,8-tetrahydropyrido[3,2-d]pyrimidin-2-yl)-N-(3-(4-(2,6-dioxopiperidin-3-yl)benzofuran-2-yl)prop-2-yn-1-yl)picolinamide] | > 80 | 1 to 9.9 | 100 to 999 | < 20
COc1cc(-c2ncc3c(n2)CCCN3c2cc(C3CCOCC3)cc3c2cc(C)c(=O)n3C)cnc1C(=O)NCC#Cc1ccc2occ(C3CCC(=O)NC3=O)c2c1 (stereo not shown) [Example B24, 5-(5-(1,3-dimethyl-2-oxo-7-(tetrahydro-2H-pyran-4-yl)-1,2-dihydroquinolin-5-yl)-5,6,7,8-tetrahydropyrido[3,2-d]pyrimidin-2-yl)-N-(3-(3-(2,6-dioxopiperidin-3-yl)benzofuran-5-yl)prop-2-yn-1-yl)-3-methoxypicolinamide] | > 80 | 1 to 9.9 | > 1000 | < 20
CCN(CC)c1cc2c(cc(C)c(=O)n2C)c(N2CCCc3nc(-c4ccc(C(=O)NCC#Cc5cc6c(C7CCC(=O)NC7=O)nccc6o5)nc4)ncc32)n1 (stereo not shown) [Example B25, 5-(5-(7-(diethylamino)-1,3-dimethyl-2-oxo-1,2-dihydro-1,6-naphthyridin-5-yl)-5,6,7,8-tetrahydropyrido[3,2-d]pyrimidin-2-yl)-N-(3-(4-(2,6-dioxopiperidin-3-yl)furo[3,2-c]pyridin-2-yl)prop-2-yn-1-yl)picolinamide] | > 80 | 1 to 9.9 | 10 to 99 | 20 to 39
Cc1cc(-c2ncc3c(n2)CCCN3c2nc(N3CC4CCC(C3)O4)cc3c2cc(C)c(=O)n3C)cnc1C(=O)NCC#Cc1ccc2occ(C3CCC(=O)NC3=O)c2c1 (stereo not shown) [Example B26, 5-(5-(7-(8-oxa-3-azabicyclo[3.2.1]octan-3-yl)-1,3-dimethyl-2-oxo-1,2-dihydro-1,6-naphthyridin-5-yl)-5,6,7,8-tetrahydropyrido [3,2-d]pyrimidin-2-yl)-N-(3-(3-(2,6-dioxopiperidin-3-yl)benzofuran-5-yl)prop-2-yn-1-yl)-3-methylpicolinamide] | > 80 | 1 to 9.9 | > 1000 | < 20
Cc1cc2c(N3CCCc4nc(-c5ccc(C(=O)NCC#Cc6cc7c(C8CCC(=O)NC8=O)cccc7o6)nc5)ncc43)nc(N3CCOCC3)cc2n(C)c1=O (stereo not shown) [Example B28, 5-(5-(1,3-dimethyl-7-morpholino-2-oxo-1,2-dihydro-1,6-naphthyridin-5-yl)-5,6,7,8-tetrahydropyrido[3,2-d]pyrimidin-2-yl)-N-(3-(4-(2,6-dioxopiperidin-3-yl)benzofuran-2-yl)prop-2-yn-1-yl)picolinamide] | > 80 | 1 to 9.9 | 100 to 999 | < 20
Cc1cc2c(N3CCCc4nc(-c5ccc(C(=O)NCC#Cc6cc7c([C@H]8CCC(=O)NC8=O)cccc7o6)nc5)ncc43)nc(N3CCOCC3)cc2n(C)c1=O [Example B29, (R)-5-(5-(1,3-dimethyl-7-morpholino-2-oxo-1,2-dihydro-1,6-naphthyridin-5-yl)-5,6,7,8-tetrahydropyrido[3,2-d]pyrimidin-2-yl)-N-(3-(4-(2,6-dioxopiperidin-3-yl)benzofuran-2-yl)prop-2-yn-1-yl)picolinamide] | > 80 | < 1 | 100 to 999 | < 20
Cc1cc2c(N3CCN(C)c4nc(-c5ccc(C(=O)NCC#Cc6cc7c(C8CCC(=O)NC8=O)nccc7o6)nc5)ncc43)cccc2n(C)c1=O (stereo not shown) [Example B32, 5-(5-(1,3-dimethyl-2-oxo-1,2-dihydroquinolin-5-yl)-8-methyl-5,6,7,8-tetrahydropteridin-2-yl)-N-(3-(4-(2,6-dioxopiperidin-3-yl)furo[3,2-c]pyridin-2-yl)prop-2-yn-1-yl)picolinamide] | > 80 | < 1 | 1 to 9.9 | 60 to 79
Cc1cc2c(N3CCCc4nc(-c5ccc(C(=O)NCC#Cc6cc7c(C8CCC(=O)NC8=O)nccc7o6)nc5)ncc43)nc(N3CCC3)cc2n(C)c1=O (stereo not shown) [Example B35, 5-(5-(7-(azetidin-1-yl)-1,3-dimethyl-2-oxo-1,2-dihydro-1,6-naphthyridin-5-yl)-5,6,7,8-tetrahydropyrido[3,2-d]pyrimidin-2-yl)-N-(3-(4-(2,6-dioxopiperidin-3-yl)furo[3,2-c]pyridin-2-yl)prop-2-yn-1-yl)picolinamide] | > 80 | 1 to 9.9 | 10 to 99 | 20 to 39
Cc1cc2c(N3CCCc4nc(-c5ccc(C(=O)NCC#Cc6cc7c([C@H]8CCC(=O)NC8=O)cccc7o6)nc5)ncc43)cc(C3CCOCC3)cc2n(C)c1=O [Example B38, (R)-5-(5-(1,3-dimethyl-2-oxo-7-(tetrahydro-2H-pyran-4-yl)-1,2-dihydroquinolin-5-yl)-5,6,7,8-tetrahydropyrido[3,2-d]pyrimidin-2-yl)-N-(3-(4-(2,6-dioxopiperidin-3-yl)benzofuran-2-yl)prop-2-yn-1-yl)picolinamide] | > 80 | < 1 | > 1000 | < 20
